Here are results for 20 molecules from publication PMC10114720.

Data set [1] in a line: monoprotic acid or base: log K of the neutral species extrapolated from the linear regression of D on the neutral fraction (from pKa and pH; the paper's eq. for monoprotic IOCs), the slope giving K of the neutral species; replicates column holds the table's 95% confidence limits. PDMS sheets cleaned by Soxhlet with ethyl acetate; batch shaking method with a mixture of all chemicals at several PDMS-mass to water-volume ratios and spiked levels; vials shaken on an orbital shaker at room temperature in the dark, sampled at two equilibration times; PDMS extracts and water quantified by LC-HRMS (Orbitrap); D from the slope of C_PDMS on C_w or their ratio. The following applies: PDMS (polydimethylsiloxane silicone sheet); phosphate buffer at three target pH values (the paper's methods).

Data set [2] in a line: PDMS sheets cleaned by Soxhlet with ethyl acetate; batch shaking method with a mixture of all chemicals at several PDMS-mass to water-volume ratios and spiked levels; vials shaken on an orbital shaker at room temperature in the dark, sampled at two equilibration times; PDMS extracts and water quantified by LC-HRMS (Orbitrap); D from the slope of C_PDMS on C_w or their ratio; value is the mean over that pH's experiments (individual experiments in the SI's concentrations table), sd is the table's stdev. The following applies: PDMS (polydimethylsiloxane silicone sheet), phosphate buffer at three target pH values (the paper's methods).

With `CCNc1ccc2c(C)cc(=O)oc2c1`, the “log K PDMS/w (neutral species)” value in data set [1] was 2.015 log units; D and K as the pape. Further, the “log D PDMS/w (apparent distribution ratio at the stated pH)” value in data set [2] (pH 3) is 1.914 log units; D and K as the pape; in data set [2] (pH 7.4) it was 1.863 log units; D and K as the pape; in data set [2] (pH 11.5), 1.825 log units; D and K as the pape.
On to `CCC1(c2ccccc2)C(=O)NCNC1=O`, for which the “log K PDMS/w (neutral species)” value in data set [1] is 1.057 log units; D and K as the pape. Also, in data set [2] (pH 3), the “log D PDMS/w (apparent distribution ratio at the stated pH)” value was 1.032 log units; D and K as the pape.
On to `c1ccc2sc(NC3CCCCC3)nc2c1`, for which the “log K PDMS/w (neutral species)” value in data set [1] was 3.105 log units; D and K as the pape. Besides, the “log D PDMS/w (apparent distribution ratio at the stated pH)” value in data set [2] (pH 3) is 2.092 log units; D and K as the pape; in data set [2] (pH 7.4), 3.079 log units; D and K as the pape; in data set [2] (pH 11.5), 3.04 log units; D and K as the pape.
As to `NC(=O)/N=C1\SCCN1Cc1ccc(Cl)nc1`, the “log K PDMS/w (neutral species)” value in data set [1] was 0.4822 log units; D and K as the pape. The “log D PDMS/w (apparent distribution ratio at the stated pH)” value in data set [2] (pH 3) was 0.2411 log units; D and K as the pape; in data set [2] (pH 7.4), 0.3692 log units; D and K as the pape; in data set [2] (pH 11.5), 0.4142 log units; D and K as the pape.
For `CC(C)C(=O)Nc1ccc([N+](=O)[O-])c(C(F)(F)F)c1`, the “log K PDMS/w (neutral species)” value in data set [1] was 1.525 log units; D and K as the pape. Further, the “log D PDMS/w (apparent distribution ratio at the stated pH)” value in data set [2] (pH 3) was 1.476 log units; D and K as the pape; in data set [2] (pH 7.4), 1.423 log units; D and K as the pape.
In the case of `Clc1ccccc1C(c1ccccc1)(c1ccccc1)n1ccnc1`, the “log K PDMS/w (neutral species)” value in data set [1] was 4.471 log units; D and K as the pape. The “log D PDMS/w (apparent distribution ratio at the stated pH)” value in data set [2] (pH 3) is 2.324 log units; D and K as the pape; in data set [2] (pH 7.4), 4.388 log units; D and K as the pape; in data set [2] (pH 11.5), 4.335 log units; D and K as the pape.
As to `CSc1nc(NC2CC2)nc(NC(C)(C)C)n1`, the “log K PDMS/w (neutral species)” value in data set [1] is 2.78 log units; D and K as the pape. Also, the “log D PDMS/w (apparent distribution ratio at the stated pH)” value is 2.006 log units; D and K as the pape in data set [2] (pH 3); 2.689 log units; D and K as the pape in data set [2] (pH 7.4); 2.624 log units; D and K as the pape in data set [2] (pH 11.5).
Regarding `c1ccc2c(c1)[nH]c1cnccc12`, in data set [1], the “log K PDMS/w (neutral species)” value was 2.353 log units; D and K as the pape. The “log D PDMS/w (apparent distribution ratio at the stated pH)” value is 1.471 log units; D and K as the pape in data set [2] (pH 3); 2.208 log units; D and K as the pape in data set [2] (pH 7.4); 2.227 log units; D and K as the pape in data set [2] (pH 11.5).
Regarding `c1ccc2[nH]nnc2c1`, the “log K PDMS/w (neutral species)” value in data set [1] was 0.1268 log units; D and K as the pape. In addition, the “log D PDMS/w (apparent distribution ratio at the stated pH)” value in data set [2] (pH 3) is 0.055 log units; D and K as the pape; in data set [2] (pH 7.4) it was 0.06625 log units; D and K as the pape.
`Clc1ccc(COC(Cn2ccnc2)c2ccc(Cl)cc2Cl)c(Cl)c1` (stereo not drawn): the “log K PDMS/w (neutral species)” value in data set [1] was 4.599 log units; D and K as the pape. Further, the “log D PDMS/w (apparent distribution ratio at the stated pH)” value in data set [2] (pH 3) was 2.616 log units; D and K as the pape; in data set [2] (pH 7.4), 4.581 log units; D and K as the pape; in data set [2] (pH 11.5), 4.53 log units; D and K as the pape.
For the molecule `CCCCc1nc(Cl)c(CO)n1Cc1ccc(-c2ccccc2-c2nn[nH]n2)cc1`, in data set [1], the “log K PDMS/w (neutral species)” value was 1.068 log units; D and K as the pape. Further, the “log D PDMS/w (apparent distribution ratio at the stated pH)” value is 0.8893 log units; D and K as the pape in data set [2] (pH 3); -0.01 log units; D and K as the pape in data set [2] (pH 7.4); -0.67 log units; D and K as the pape in data set [2] (pH 11.5).
For `c1ccc2nc3ccccc3cc2c1`, in data set [1], the “log K PDMS/w (neutral species)” value was 2.366 log units; D and K as the pape. Besides, the “log D PDMS/w (apparent distribution ratio at the stated pH)” value in data set [2] (pH 3) was 0.945 log units; D and K as the pape; in data set [2] (pH 7.4), 2.315 log units; D and K as the pape; in data set [2] (pH 11.5) it was 2.167 log units; D and K as the pape.
For `c1ccc2[nH]c(-c3cscn3)nc2c1`, the “log K PDMS/w (neutral species)” value in data set [1] was 1.855 log units; D and K as the pape. Moreover, the “log D PDMS/w (apparent distribution ratio at the stated pH)” value is 0.5417 log units; D and K as the pape in data set [2] (pH 3); 1.69 log units; D and K as the pape in data set [2] (pH 7.4); 1.693 log units; D and K as the pape in data set [2] (pH 11.5).
On to `c1ccc2c(c1)[nH]c1ccncc12`, for which, in data set [1], the “log K PDMS/w (neutral species)” value is 2.458 log units; D and K as the pape. The “log D PDMS/w (apparent distribution ratio at the stated pH)” value in data set [2] (pH 3) is -0.445 log units; D and K as the pape; in data set [2] (pH 7.4), 2.315 log units; D and K as the pape; in data set [2] (pH 11.5), 2.443 log units; D and K as the pape.
`O=C1Nc2ccc(Cl)cc2C(C#CC2CC2)(C(F)(F)F)O1` (stereo not drawn): the “log K PDMS/w (neutral species)” value in data set [1] was 2.899 log units; D and K as the pape. Besides, the “log D PDMS/w (apparent distribution ratio at the stated pH)” value in data set [2] (pH 3) is 2.835 log units; D and K as the pape; in data set [2] (pH 7.4), 2.884 log units; D and K as the pape.
In the case of `CCOC(=O)c1ccc(N)cc1`, the “log K PDMS/w (neutral species)” value in data set [1] is 0.5546 log units; D and K as the pape. The “log D PDMS/w (apparent distribution ratio at the stated pH)” value in data set [2] (pH 3) is 0.4988 log units; D and K as the pape; in data set [2] (pH 7.4), 0.4322 log units; D and K as the pape; in data set [2] (pH 11.5) it was 0.4489 log units; D and K as the pape.
`Cc1cc(=O)oc2cc(N)ccc12`: in data set [1], the “log K PDMS/w (neutral species)” value was 0.9136 log units; D and K as the pape. Moreover, the “log D PDMS/w (apparent distribution ratio at the stated pH)” value in data set [2] (pH 3) was 0.7917 log units; D and K as the pape; in data set [2] (pH 7.4), 0.8008 log units; D and K as the pape; in data set [2] (pH 11.5), 0.8475 log units; D and K as the pape.
With `NC(=O)N1c2ccccc2C(O)C(O)c2ccccc21` (stereo not drawn), the “log K PDMS/w (neutral species)” value in data set [1] is 0.07041 log units; D and K as the pape. Besides, the “log D PDMS/w (apparent distribution ratio at the stated pH)” value in data set [2] (pH 3) is -0.08 log units; D and K as the pape; in data set [2] (pH 7.4), -0.44 log units; D and K as the pape; in data set [2] (pH 11.5), -0.57 log units; D and K as the pape.
With `O=c1c2ccccc2[nH]c2ccccc12`, the “log K PDMS/w (neutral species)” value in data set [1] is 1.406 log units; D and K as the pape. For the same molecule, the “log D PDMS/w (apparent distribution ratio at the stated pH)” value in data set [2] (pH 3) was 1.351 log units; D and K as the pape; in data set [2] (pH 7.4) it was 1.251 log units; D and K as the pape; in data set [2] (pH 11.5), 1.334 log units; D and K as the pape.
On to `CC(C)(C)c1ccc(S(N)(=O)=O)cc1`, for which, in data set [1], the “log K PDMS/w (neutral species)” value was 1.285 log units; D and K as the pape. In addition, the “log D PDMS/w (apparent distribution ratio at the stated pH)” value in data set [2] (pH 3) was 1.11 log units; D and K as the pape; in data set [2] (pH 7.4), 1.067 log units; D and K as the pape; in data set [2] (pH 11.5) it was 1.073 log units; D and K as the pape.
